This is an account of results in patent publication US20240109863A1, “2-PYRIDONE DERIVATIVE, AND PREPARATION METHOD THEREFOR AND PHARMACEUTICAL APPLICATION THEREOF” (KPC PHARMACEUTICALS, INC, priority 2020, published 2024).

The conditions of data set [1]: preclinical toxicology and data of phase I; cited from earlier work.
The conditions of data set [2]: data of phase II, cited from earlier work.
The target in a further data set is T1, THRβ (Homo sapiens, UniProt P10828).
T1 construct: RXRα and THRβ-LBD Eu-anti-GST antibody with GST tag
Briefly: THRβ binding assay (time-resolved FRET coactivator peptide recruitment). Conditions: THRβ-LBD/RXRα, SRC2-2 coactivator peptide recruitment, 4 hours at room temperature. It is filed as biochemical. The method, then: Experimental methods: In vitro analysis of the agonistic effect of compounds on THRβ was performed using time-resolved fluorescence resonance energy transfer coactivator peptide recruitment assays. The assay used biotin-SRC2-2 coactivator peptide, streptavidin-d2, RXRα and THRβ-LBD Eu-anti-GST antibody with GST tag. Eu-anti-GST antibody indirectly labeled THRβ-LBD by binding to the GST tag. Streptavidin-d2 indirectly labeled the SRC2-2 coactivator peptide by binding to the biotin tag. In the presence of RXRα, THRβ-LBD can form heterodimer THRβ-LBD/RXRα with it. […] According to the effect of different concentrations of the compound on the activity of THRβ, the agonistic ability of the compound can be evaluated.
The detailed procedure is as follows: • a. 100× reference compound or compound was prepared with DMSO, and equally diluted by 1:3. • b. 100× gradiently diluted reference compound or compound was diluted with 1× reaction buffer to 4×, which was then added to an assay plate. • c. A mixed solution of 4× THRβ-LBD and 4× RXRα was prepared with 1× reaction buffer, and added to the assay plate. • d. A mixed solution of 2× biotin-SRC2-2, 2× Eu-anti-GST, and 2× streptavidin-d2 was prepared with 1× reaction buffer, and added to the assay plate. • e. The assay plate was centrifuged at 1000 rpm for 1 min, and incubated at room temperature in the dark for 4 hours. • f.

Another data set deals with T2, THRα (Homo sapiens, UniProt P10827).
T2 construct: GST
Briefly: THRα binding assay (as the THRβ assay, THRβ replaced with THRα). The format is biochemical. Conditions: for EC50: THRα in place of THRβ; for THRα/β selectivity (fold): ratio of THRα EC50 to THRβ EC50.

Data set [3] in a line: In vivo pharmacokinetics in mice. Conditions: male ICR mice, intragastric, single dose 3 mg/Kg; for Area of curve / half-life: plasma; for half-life: mouse, po. The method, then: Mice were used as test animals, and intragastrically administered with the compounds of Example 1 and Example 46, and then the drug concentrations in plasma at different time points were measured. The pharmacokinetic performance of the compounds of the present invention in mice was studied, and the drug metabolism characteristics were evaluated. In the example, healthy adult male ICR mice with similar body weight were selected, and orally administered with drugs once at a dose of 3.0 mg/kg. Whole blood was collected before the administration and 1 h, 2 h, 4 h, 6 h, 8 h, 12 h, 24 h and 48 h after the administration, respectively. LC/MS/MS method was established to determine the concentrations of prototype drugs in plasma samples. The main pharmacokinetic parameters were calculated using WinNonlin 6.3 NCA model.
Experimental drug: the compounds obtained in Example 1 and Example 46.
Experimental animals: 9 healthy adult male ICR mice, equally divided into 3 groups, 3 mice in each group, purchased from Shanghai Xipu'er-Bikai Experimental Animal Co., Ltd., with an animal certificate number: SOCK (Shanghai) 2018-0006 2018 0006 010467.
Preparation of drug: A certain amount of the compounds of Example 1 and Example 46 were accurately weighed, put into a 15 ml sample tube, wetted by 5 μL of Tween 80, and then added with 5.2 mL of 2% hydroxypropyl methylcellulose (HPMC) solution. The mixture was sonicated and mixed by vortex to obtain a homogeneous suspension. The drugs were freshly prepared just before use.
Administration: After fasting overnight, ICR mice were intragastrically administered with the drugs at a dose of 3.0 mg/kg.
Operation: The mice were intragastrically administered with the compounds of Example 1 and Example 46. Whole blood was collected before the administration and 1 h, 2 h, 4 h, 6 h, 8 h, 12 h, 24 h and 48 h after the administration, then anticoagulated with heparin sodium, and centrifuged at 4° C. for 5 min. Plasma was separated, and stored at −80° C. for determination.
Determination of the contents of the compounds to be tested in the mice plasma after intragastric administration of drugs: 12.5 μL of the mice plasma to be tested at each time point after the administration of the compounds of Example 1 and Example 46 were taken respectively, mixed in pairs, and added with 100 μL of the internal standard solution and 125 μL of methanol. The mixture was mixed by vortex for 2 min, and centrifuged at 13000 rpm for 10 min at 4° C. The supernatant was taken for LC-MS/MS analysis.

A short description of data set [4]: In vitro liver microsome stability assay. The format is in vitro ADME. To be noted: liver microsomes, pH 7.4; human, 0.2 mg/mL liver microsomal protein, 1 μM test substance, 37° C.; read-out: Liver microsome stability (species: human): T½. On the procedure:
The test substance and the positive control substance verapamil were respectively dissolved with DMSO to 10 mM as a stock solution. The above 10 mM stock solution was diluted with 70% acetonitrile aqueous solution to a concentration of 0.25 mM.
An NADPH regeneration system finally containing concentrations of 6.5 mM NADP, 16.5 mM G-6-P, 3 U/mL G-6-PDH, and 3.3 mM MgCl was prepared.
Stopping solution was an acetonitrile solution containing tolbutamide and propranolol (both internal standards).
Phosphate buffer was a 100 mM K3PO4 (pH=7.4) buffer containing 3.3 mM MgCl2.
Liver microsomal incubation system was a 100 mM phosphate buffer containing 0.2 mg/mL liver microsomal protein and 1 μM test substance/positive control.
80 μL of the mixed solution from the incubation system was taken. 400 μL of the stopping solution was added to precipitate protein. The mixture was vortexed and added with 20 μL of NADPH regeneration system as the sample at 0 min.
130 μL of NADPH regeneration system was added to the remaining 520 μL of protein-drug mixed solution. The mixture was mixed well, and incubated. The final incubation system was 650 μL, containing 0.2 mg/mL liver microsomal protein, 1 μM test substance/positive control, 1.3 mM NADP, 3.3 mM G-6-P, and 0.6 U/mL G-6-PDH.
The mixed system was slowly shaken and incubated in a water bath at 37° C. 100 μL of the incubation solution was taken at 5, 10, 30, and 60 min, respectively, and added into a new 96-well plate with 400 μL of stopping solution in each well. The mixture in each well was mixed well, and the protein was precipitated by centrifuging at 4000×g for 15 minutes at 4° C.
100 μL of the supernatant was taken, and diluted with water at a ratio of 1:2. The samples were analyzed by LC-MS/MS.
(In general: Liver microsomes are vesicles of endoplasmic reticulum, rich in cytochrome P450 enzymes.)

T1 sequence (P10828 217-461 limits assumed, other chains not shown): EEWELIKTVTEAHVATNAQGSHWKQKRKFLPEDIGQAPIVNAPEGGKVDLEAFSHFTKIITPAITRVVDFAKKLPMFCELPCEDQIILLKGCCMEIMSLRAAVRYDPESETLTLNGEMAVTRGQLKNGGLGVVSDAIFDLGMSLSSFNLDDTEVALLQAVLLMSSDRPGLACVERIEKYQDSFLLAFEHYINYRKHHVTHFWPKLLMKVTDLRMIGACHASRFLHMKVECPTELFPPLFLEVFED
T1 sequence (P19793 whole entry partner, other chains not shown, the tested form may be a part): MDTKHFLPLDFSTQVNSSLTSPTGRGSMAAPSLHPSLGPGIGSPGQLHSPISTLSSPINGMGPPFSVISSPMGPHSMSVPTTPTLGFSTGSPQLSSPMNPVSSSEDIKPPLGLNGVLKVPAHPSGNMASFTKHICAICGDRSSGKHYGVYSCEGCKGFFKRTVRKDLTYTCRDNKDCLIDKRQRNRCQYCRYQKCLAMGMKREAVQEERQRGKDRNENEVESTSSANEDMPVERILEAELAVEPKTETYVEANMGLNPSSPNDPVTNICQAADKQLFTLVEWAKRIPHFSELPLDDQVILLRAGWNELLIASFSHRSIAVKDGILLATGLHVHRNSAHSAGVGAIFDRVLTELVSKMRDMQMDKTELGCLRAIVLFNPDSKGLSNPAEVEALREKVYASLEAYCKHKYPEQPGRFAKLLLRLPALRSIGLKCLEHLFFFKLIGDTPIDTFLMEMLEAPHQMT
T2 sequence (P10827 1-410 isoform P10827-2, other chains not shown): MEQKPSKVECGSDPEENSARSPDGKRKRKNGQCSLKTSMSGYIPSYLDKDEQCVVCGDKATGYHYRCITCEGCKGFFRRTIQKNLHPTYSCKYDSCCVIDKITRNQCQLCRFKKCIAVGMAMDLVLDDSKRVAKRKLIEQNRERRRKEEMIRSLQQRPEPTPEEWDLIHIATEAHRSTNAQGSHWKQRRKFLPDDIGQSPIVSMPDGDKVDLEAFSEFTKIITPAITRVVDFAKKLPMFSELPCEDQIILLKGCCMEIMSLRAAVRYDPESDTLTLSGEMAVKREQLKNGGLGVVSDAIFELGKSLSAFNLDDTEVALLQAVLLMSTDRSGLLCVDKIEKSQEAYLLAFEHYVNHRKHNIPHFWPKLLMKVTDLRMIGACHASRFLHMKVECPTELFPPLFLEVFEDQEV
T2 sequence (P19793 whole entry partner, other chains not shown): as the sequence (P19793 whole entry partner, other chains not shown, the tested form may be a part) above

Consider `CC(C)c1cc(Oc2c(Cl)cc(-n3nc(C#N)c(=O)[nH]c3=O)cc2Cl)n[nH]c1=O` [Control compound 2, MGL-3196], for which the “LDL cholesterol, triglycerides and lipoproteins” value in data set [1] is “significantly reduce”. Besides, the severe cases in data set [2] (not related to treatment) was 3. In data set [2], the “adverse effects (AEs) mild” value is recorded as 85% and the “adverse effects (AEs) moderate” value was 15%.
As to `CC(C)n1cc(Oc2c(Cl)cc(-n3nc(C#N)c(=O)[nH]c3=O)cc2Cl)ccc1=O` [Example 1, 2-(3,5-Dichloro-4-((1-isopropyl-6-oxo-1,6-dihydropyridin-3-yl)oxy)phenyl)-3,5-dioxo-2,3,4,5-tetrahydro-1,2,4-triazine-6-carbonitrile], the EC50 at THRβ was determined as 11 nM. In addition, at THRα, the EC50 stood at 49 nM and the “THRα/β selectivity (fold)” value stood at 4.5 fold. In data set [3], the “Peak plasma concentration” value was found to be 54.0 ng/mL, the “Area of curve” value stood at 535.2 ng·h/mL and the half-life is 5.6 h.
At THRβ, `O=c1[nH]c(=O)n(-c2cc(Cl)c(Oc3ccc(=O)n(-c4ccccc4)c3)c(Cl)c2)nc1CF` [Example 35, 2-(3,5-dichloro-4-((6-oxo-1-phenyl-1,6-dihydropyridin-3-yl)oxy)phenyl)-6-(fluoromethyl)-1,2,4-triazine-3,5(2H, 4H)-dione] came in with a 50% effective concentration (EC50) of 6 nM. On THRα, the EC50 was determined as 220 nM and the “THRα/β selectivity (fold)” value came to 36.7 fold. For the same molecule, the half-life at 1 μM in data set [4] is more than 2 h.
In turn, `CC1CCc2c(Oc3c(Cl)cc(-n4nc(C#N)c(=O)[nH]c4=O)cc3Cl)ccc(=O)n21` (centres unmarked) [Example 46, 2-(3,5-dichloro-4-((3-methyl-5-oxo-1,2,3,5-tetrahydroindoline-8-yl)oxy)phenyl)-3,5-dioxo-2,3,4,5-tetrahydro-1,2,4-triazine-6-carbonitrile] registered a half-maximal effective concentration (EC50) at THRβ of 102 nM. Further, at THRα, the midpoint of the response, the EC50, lay at 930 nM and the “THRα/β selectivity (fold)” value is 9.1 fold. Further, in data set [3], the “Peak plasma concentration” value is 92.37 ng/mL, the “Area of curve” value turned out to be 1774.03 ng·h/mL and the half-life is 11.2 h.

Usually EC50 stands for the concentration at which the effect is half-maximal. A high value points to a need for much substance.
